# According to patent US20240390311A1 (priority 2020, published 2024):
# Read-outs that look alike come from different tables or passages of the source.
# Legend:
# [1] = system: MHV-1; type: in vivo, A/J mice; details: for body weight loss / death rate / disease (illness) scores / lung coefficient index: Example 2, in water: GABA 2 mg/mL, homotaurine 0.25 mg/mL, baclofen 0.25 mg/mL, vs untreated controls
# [2] = system: SARS-CoV-2; details: NIH (NCATS) screen; cited from earlier work
# [3] = system: autoreactive Th1 and Th17 cells; details: cited from earlier work; for disease progression in mouse models of type 1 diabetes, multiple sclerosis, and rheumatoid arthritis: administration of GABA or homotaurine; for CD4+ and CD8+ Treg responses / autoreactive Th1 and Th17 cells: in vivo administration
# [4] = cited from earlier work
# [5] = system: SARS-CoV-2; type: in vivo, K18-hACE2 mice; details: for mice surviving on days 7-8 post-infection: control 20%
# [6] = system: SARS-CoV-2; type: in vivo, K18-hACE2 mice
# [7] = hundreds of epilepsy patients, long-term studies
# [8] = GABA 2 mg/mL treated vs untreated infected mice
# [9] = GABA 2 mg/mL vs untreated infected mice, p<0.001
# [10] = GABA-treated vs SC group, no statistically significant difference
smiles,measurement,setting,value
"NCC(CC(=O)O)c1ccc(Cl)cc1 (stereo not drawn) [Baclofen, baclofen]",body weight loss,[1],did not significantly decrease
same,death rate,[1],did not significantly decrease
same,disease (illness) scores,[1],slight but significant ability to reduce
same,lung coefficient index,[1],did not significantly decrease
"NCCCC(=O)O [GABA, gamma-aminobutyric acid]",SARS-CoV-2 interaction with its cellular receptor,[2],did not interfere
same,SARS-CoV-2 replication,[2],did not interfere
same,"disease progression in mouse models of type 1 diabetes, multiple sclerosis, and rheumatoid arthritis",[3],inhibits
same,CD4+ and CD8+ Treg responses,[3],promoting
same,autoreactive Th1 and Th17 cells,[3],inhibits
same,ability to reduce seizures,[4]; [7],no clinical benefit
same,adverse effects,[4]; [7],no adverse effects
same,safety,[4]; phase Ib GABA oral dosing study,safe
same,body weight loss,[1],significantly reduced
same,death rate,[1],significantly reduced
same,disease (illness) scores,[1],significantly reduced
same,highest average illness score,"[1]; GABA 20 mg/ml immediately after inoculation, day 7 post-infection, scale 0-5",1.6
same,"body weight at 14 days post-infection, of starting weight",[1]; GABA 20 mg/ml starting 3 days post-infection,90%
same,maximum mean illness score,"[1]; GABA 20 mg/ml starting 3 days post-infection, scale 0-5",2.5
same,mice that died,"[1]; GABA 20 mg/ml starting 3 days post-infection, up to 14 days (death on day 9)",1/9
same,average body weight below starting weight 14 days post-infection,[1]; GABA 20 mg/ml starting immediately after MHV-1 inoculation,7%
same,mice that died,"[1]; GABA 20 mg/ml starting immediately after MHV-1 inoculation, up to 14 days, control 3/9 survived",none
same,mice survived at end of study on day 7,"[5]; Example 4, GABA 2 mg/mL started 2 days post-infection, control 22%, p=0.004",88%
same,longitudinal mean illness scores,"[5]; Example 4, GABA 2 mg/mL started 2 days post-infection, overall p=0.002",reduced
same,mice that died during the 7-day observation period,"[5]; Trial 1, GABA 0.2 mg/mL in water, control 3/5 died",none
same,mice surviving on days 7-8 post-infection,"[5]; Trial 2, GABA 0.2 mg/mL, p=0.004",80%
same,mice surviving on days 7-8 post-infection,"[5]; Trial 2, GABA 2 mg/mL, p=0.018",80%
same,illness scores,"[5]; Trial 2, GABA 0.2 or 2.0 mg/mL in water from infection, vs control",significantly reduced
same,serum GM-CSF level,[6]; [8],not found to have a statistically significant difference
same,serum IFNα level,[6]; [8],not found to have a statistically significant difference
same,serum IFNβ level,[6]; [8],not found to have a statistically significant difference
same,serum IFNγ level,[6]; [8],not found to have a statistically significant difference
same,serum IL-12 level,[6]; [8],not found to have a statistically significant difference
same,serum IL-10 levels,[6]; [9],further significantly elevated
same,serum IP-10 (CXCL10) levels,[6]; [9],significantly reduced
same,TNFα production (serum),"[6]; GABA 2 mg/mL vs untreated infected, p<0.001",significantly mitigated
same,mice with detectable IFNβ levels,"[6]; GABA 2 mg/mL, 1/10 in healthy and infected control groups",3/10
same,mice with high levels of IFNγ,"[6]; GABA 2 mg/mL, 3/10 in untreated infected group",1/10
same,median and mean levels of IFNα,"[6]; GABA treated vs. untreated infected group, p=0.14",slightly elevated
same,serum IL-1β level,[6]; [10],slightly reduced
same,serum IL-6 level,[6]; [10],slightly reduced
same,median and mean IFNγ levels,"[6]; GABA-treated vs. untreated infected mice, p=0.25",reduced
same,serum CCL2 levels,"[6]; GABA-treated vs. untreated-infected mice, p=0.07",tending to be lower
same,serum CCL5 level,"[6]; among HC, SC and GABA groups",No statistically significant difference
same,serum CXCL1 level,"[6]; among HC, SC and GABA groups",No statistically significant difference
NCCCS(=O)(=O)O [homotaurine],"disease progression in mouse models of type 1 diabetes, multiple sclerosis, and rheumatoid arthritis",[3],inhibits
same,CD4+ and CD8+ Treg responses,[3],promoting
same,autoreactive Th1 and Th17 cells,[3],inhibits
same,body weight loss,[1],significantly reduced
same,death rate,[1],significantly reduced
same,disease (illness) scores,[1],significantly reduced
same,lung coefficient index,[1],significantly reduced
